Experiments:
[1] = tested on: BALB/c mice; experiment: Murine model of oxazolone-induced ear edema; assay type: in vivo; conditions: topical, positive control
Method: This is a contract research performed by Washington Biotechnology Inc., Columbia, Md., protocol 1041. On day 0, 42 BALB/c mice (female, Harlan Sprague-Dawley, 5-6 weeks) were shaved on the ventral surface of the right ear. 100 μl of the 5% oxazolone solution (Sigma) was then applied to the saved ear. The treated mice were then returned to the cage and kept for additional 6 days. On day 7, the mice were weighed and dosed orally with 10 ml/kg water or DA021 at either 30 mg/kg or 100 mg/kg or topically applied on both sides of both ears with 25 μl betamethasone. Thirty minutes after oral dosing, 5 μl of 3% oxazolone was applied to both sides of the right ear and 5 μl of acetone was applied to both sides of the contralateral ear. Twenty-four hours after 3% oxazolone/acetone application, the mice were euthanized, the ears removed and weighed.
To evaluate the efficacy and potency of DA021 in acute inflammation, an oxazolone-induced ear edema model was carried out in mice. Oxazolone-induced ear edema model is a commonly used skin inflammatory animal model. Oxazolone (OA) is an allergen that induces immunological responses that lead to surface edema. […] Betamethasone (BMS) which was used as a positive control, is a corticosteroid that is used as an anti-itching cream and other anti-inflammatory remedies.
Mice were then treated with betamethasone (BMS, mg, topical) or DA021 (mg/kg, p.o.) and the ears were removed and weighed. N=10 per group, significance (p-value) was calculated versus OA+vehicle using the Student's T-test, *=P≦1×10^−7, #=P≦1×10^−12.

[2] = tested on: C57BL/6 mice immunized with MOG; experiment: Experimental autoimmune encephalomyelitis (EAE) behavioral scores; assay type: in vivo; conditions: 100 mg/kg oral daily from day of immunization
Method: FIG. 15 illustrates that DA001 improves the behavioral scores of mice with experimental autoimmune encephalomyelitis. C57BL/6 mice were immunized subcutaneously at both sides of their hind limbs with myelin oligodendrocyte glycoprotein (MOG)/Complete Freund's Adjuvant (CFA) kit (Hooke Laboratories) and performed as indicated in the manufacturer's instruction. Albumin/CFA kit (Hooke Laboratories) were used as an immunization control. Oral administration of DA001 at 100 mg/kg was given daily starting from the day of immunization. The vehicle (water) was given to mice injected with MOG or albumin daily via oral administration. Animals were weighed and monitored daily and behavioral impairment was quantified based on the clinical scale. The graph presented here is a composite of four separate EAE trials. **=p≦0.01.
FIG. 16 illustrates that DA002 improves the behavioral scores of mice with experimental autoimmune encephalomyelitis. C57BL/6 mice were immunized subcutaneously at both sides of their hind limbs with myelin oligodendrocyte glycoprotein (MOG)/Complete Freund's Adjuvant (CFA) kit (Hooke Laboratories) and performed as indicated in the manufacturer's instruction. […] Animals were weighed and monitored daily and behavioral impairment was quantified based on the clinical scale. *=p≦0.05.
C57BL/6 mice were immunized subcutaneously at both sides of their hind limbs with myelin oligodendrocyte glycoprotein (MOG)/Complete Freund's Adjuvant (CFA) kit (Hooke Laboratories) and performed as in manufacturer's instruction. […] Animals were weighed and monitored daily and behavioral impairment was quantified based on the clinical scale. […]
On day 0, six-week old male C57BL/6 mice (Hong Kong University of Science and Technology, Animal Care facility) were immunized with 100 μg of myelin oligodendrocyte glycoprotein peptide (MOG35-55)/complete Freund's Adjuvant (CFA) emulsion kit (Hooke Laboratories) was injected subcutaneously at both sides of the tail base. […] The animals were also weighed and the neurological impairment was quantified daily based on the previously published criteria. […]

[3] = tested on: cortical neurons; experiment: Cortical neuron survival assay against amyloid beta peptide excitotoxicity (MTT); assay type: cell-based, Sprague-Dawley rats; set-up: key: black bars represent compounds with strong protective effect; striped bars represent compounds with moderate effect; light-dotted bars represent compounds without or with effect less than 25%; conditions: compounds 2 hours prior to co-treatment with Aβ25-35 (10 μM) 24 hours
Method: FIG. 14. Derivatives of DA001 protect the cortical neurons from Aβ25-35 excitotoxicity. Cortical neurons were incubated with compounds (at various [μM]) derived from of DA001 2 hours prior to co-treatment with Aβ25-35 (10 μM) for 24 hours. 3-(4,5-Dimethylthiazol-2-yl)-2,5-diphenyltetrazolium bromide (MTT) assay was performed 24 hours after Aβ25-35 treatment. Data are expressed as mean fold change±s.e.m. compared to solvent control (DMSO). Dark-dotted bar represents data without addition of Aβ25-35, open bar represents solvent control, black bars represent compounds with strong protective effect while striped bars represent compounds with moderate effect, light-dotted bars represent compounds without or with effect less than 25%. *=P<0.05, **=P<0.005.
Cortical neurons were prepared from embryonic day 18 Sprague-Dawley rats. After the cortices had been removed from the brain, isolated cells were plated onto Poly d-Lysine (PDL) (P0899, Sigma)-coated 48 well plates (150687, NUNC) at a density of 1×10^5 cell per well using Neurobasal Medium (NB) (21103-049, Gibco) with B27 supplement (17504-044, Gibco), penicillin/streptomycin (15140, Gibco) and 1 mM L-glutamine (25030, Gibco). The cell culture was incubated at 37° C. in a humidified atmosphere of 5% CO2 in air. Medium was changed to growth medium (Neurobasal Medium with penicillin/streptomycin and B27 supplement) after 3 hours. Half medium was changed with growth medium every 2-3 days to maintain the cells until day 7 in vitro (7 DIV). Serial dilutions of samples were prepared in growth medium and DMSO was used as vehicle control. For pre-treating part, half of the medium was removed from wells, and equal amount of diluted samples were replaced. Cells were then incubated for 2 hours at 37° C. in a humidified atmosphere of 5% CO2 in air. Cortical neurons were then incubated with DA001 derived compounds (at various concentrations in [μM]) together with Aβ25-35 (10 μM, Sigma) for 24 hours. Quantification of living cells are measured by MTT (3-(4,5-Dimethylthiazol-2-yl)-2,5-diphenyltetrazolium bromide, USB) assay performed 24 hours after Aβ25-35 treatment. Yellow MTT is reduced to purple formazan in the mitochondria of living cells. A solubilization solution [10% SDS (sodium dodecyl sulfate)/0.01 M hydrochloric acid] is added to dissolve the insoluble purple formazan product into a colored solution which was then quantified at wavelength 570 nm using a spectrophotometer (DYNEX Technologies).
A total of 90 derivatives of DA001 were synthesized, and their effect on cortical neurons survival against amyloid beta peptide (Aβ25-35) excitotoxicity was examined. […] Compounds with strong protective effect are DA002, DA005, DA007, DA016, DA018, DA019, DA042, DA044, DA060 and DA072.

[4] = tested on: LPS-induced TNF-α in serum; experiment: Murine model of lipopolysaccharide-induced cytokine production; assay type: in vivo, Swiss-Webster mice; conditions: 10 mg/kg orally, positive control
Method: This is a contract research performed by Washington Biotechnology Inc., Columbia, Md., protocol 1077. Swiss-Webster mice (female, Harlan Sprague-Dawley, 5-6 weeks) were weighed and dosed orally with 10 ml/kg water, prednisolone at 10 mg/kg, or DA021 at 30 mg/kg or 100 mg/kg. Thirty minutes after oral dosing, lipopolysaccharides (LPS) at 2 mL/kg was injected. Two hours after LPS injection, the mice were anesthetized and exsanguinated into serum separator micro-container tubes. The blood was processed to serum. The serum samples were assayed for tumor necrosis factor-α (TNFα) concentration by ELISA (Pierce) according to the manufacturer's protocol.
Evaluation of the efficacy and potency of orally administered DA021 to inhibit the lipopolysaccharide (LPS)-induced release of tumor necrosis factor-α (TNF-α) in mice was carried out. LPS is a widely used endotoxin, isolated from the bacteria, E. coli in inducing acute inflammation in an organism. Prednisolone is a synthetic corticosteroid drug that is commonly used in inflammatory reactions. It is a broad range immunosuppressant. Based on FIG. 29, there was a marked increase in the amount of TNF-α in serum upon LPS treatment in mice.
Two hours after LPS injection, the serum was collected from the mice. The serum samples were assayed for tumor necrosis factor-α (TNFα) concentration by ELISA (Pierce) according to the manufacturer's protocol. N=10, significance was calculated versus LPS+vehicle using the Student's T-test, *=p≦0.05, #=p≦1×10^−4.

SMILES	protective effect against Aβ25-35 excitotoxicity [3]	other results
C[C@H]1C[C@H]2[C@@H]3CCC4=CC(=O)C=C[C@]4(C)[C@@]3(F)[C@@H](O)C[C@]2(C)[C@@]1(O)C(=O)CO [Betamethasone, reference compound]		Change in Ear Weight (mg), Average [1]: 17.4 mg; Change in Ear Weight, % Inhibition [1]: 75.4%
C=C(C)[C@@H]1CC[C@]2(C(=O)O)CC[C@]3(C)C(CCC4[C@@]5(C)CC[C@H](O)[C@@](C)(CO)[C@@H]5CC[C@]43C)C12 (stereo partly shown) [DA002]	strong	EAE scores vs vehicle-treated EAE mice [2]: significant decrease in the EAE scores
C=C(C)[C@@H]1CC[C@]2(C(=O)O)CC[C@]3(C)C(CCC4[C@@]5(C)CC[C@H](OC(C)=O)[C@@](C)(CO)[C@@H]5CC[C@]43C)C12 (stereo partly shown) [DA007]	strong	
C=C(C)[C@@H]1CC[C@]2(C(=O)O)CC[C@]3(C)C(CCC4[C@@]5(C)CCC(=O)[C@@](C)(COC(C)=O)[C@@H]5CC[C@]43C)C12 (stereo partly shown) [DA016]	strong	
C=C(C)[C@@H]1CC[C@]2(C(=O)O)CC[C@]3(C)C(CCC4[C@@]5(C)CCC(=O)[C@@](C)(CO)[C@@H]5CC[C@]43C)C12 (stereo partly shown) [DA018]	strong	
C=C(C)[C@@H]1CC[C@]2(C(=O)O)CC[C@]3(C)C(CCC4[C@@]5(C)CC/C(=N\O)[C@@](C)(CO)[C@@H]5CC[C@]43C)C12 (stereo partly shown) [DA019]	strong	
C=C(C)[C@@H]1CC[C@]2(C(=O)NCc3ccccc3)CC[C@]3(C)C(CCC4[C@@]5(C)CC[C@H](O)[C@@](C)(CO)[C@@H]5CC[C@]43C)C12 (stereo partly shown) [DA042]	strong	
C=C(C)[C@@H]1CC[C@]2(C(=O)O)CC[C@]3(C)C(CCC4[C@@]5(C)CC[C@H](O[C@@H]6OC[C@H](OC(C)=O)[C@H](OC(C)=O)[C@H]6O[C@@H]6O[C@@H](C)[C@H](OC(C)=O)[C@@H](OC(C)=O)[C@H]6OC(C)=O)[C@@](C)(COC(C)=O)[C@@H]5CC[C@]43C)C12 (stereo partly shown) [DA044]	strong	
C=C(COC(C)=O)[C@@H]1CC[C@]2(C(=O)O)CC[C@]3(C)C(CC[C@@H]4[C@@]5(C)CC[C@H](OC(C)=O)[C@@](C)(COC(C)=O)[C@@H]5CC[C@]43C)[C@@H]12 (stereo partly shown) [DA060, 3,23,30-Triacetoxy-betulinic acid]	strong	
C=C(CNCc1ccccc1)[C@@H]1CC[C@]2(C(=O)O)CC[C@]3(C)C(CC[C@@H]4[C@@]5(C)CC[C@H](OC(C)=O)[C@@](C)(COC(C)=O)[C@@H]5CC[C@]43C)[C@@H]12 (stereo partly shown) [DA072, 30-N-Benzylamino-3,23-diacetoxy-betulinic acid]	strong	
C[C@]12C=CC(=O)C=C1CC[C@@H]1[C@@H]2[C@@H](O)C[C@@]2(C)[C@H]1CC[C@]2(O)C(=O)CO [Prednisolone, reference compound]		LPS-induced TNF-α level [4]: dramatically decreased
